{"source": "patent US9738631B2", "about": "“Compositions and methods for the treatment of neurological disorders” (CELLIXBIO PRIVATE LIMITED, priority 2012, dated 2017)", "key": {"[1]": {"assay": "Pharmacokinetic profiles over 24 hours in normal and diabetic rats (toxicokinetic study)", "type": "in vivo, Sprague Dawely rats", "details": "for reduction of AUC0-24 by diabetes / reduction of AUC0-inf by diabetes / reduction of Cmax by diabetes: streptozotocin-diabetic rats", "description": "Toxicokinetic Effects of Carbamazepine and Formula (1-2) in Diabetic Rats […] Animals were divided into […], normal and diabetic sets; each set was divided into control and three-treated groups where rats received orally carbamazepine and formula (1-2) in dose levels of 100 and 200 mg/kg once daily for 28 days. The pharmacokinetic profiles were carried out over a period of 24 hours. The liver functions were evaluated by the determination of albumin, ALT and AST plasma levels and kidney functions were determined by creatinine and urea. Histopathology of rat's livers and kidneys were also investigated. Carbamazepine plasma levels were determined by a validated HPLC method."}, "[2]": {"tested_on": "adult male Sprague Dawely rats", "assay": "Liver and kidney functions (albumin, ALT, AST, creatinine, urea) after 28 days oral dosing", "type": "in vivo", "description": "Toxicokinetic Effects of Carbamazepine and Formula (1-2) in Diabetic Rats\nDiabetes was induced in adult male Sprague Dawely rats by streptozotocin (60 mg/kg, ip). Animals were divided into […], normal and diabetic sets; each set was divided into control and three-treated groups where rats received orally carbamazepine and formula (1-2) in dose levels of 100 and 200 mg/kg once daily for 28 days. The pharmacokinetic profiles were carried out over a period of 24 hours. The liver functions were evaluated by the determination of albumin, ALT and AST plasma levels and kidney functions were determined by creatinine and urea. Histopathology of rat's livers and kidneys were also investigated. Carbamazepine plasma levels were determined by a validated HPLC method."}, "[3]": {"details": "treated groups, 100 and 200 mg/kg orally once daily for 28 days, P<0.05"}}}
{"molecule": "NC(=O)N1c2ccccc2C=Cc2ccccc21", "note": "[carbamazepine, Carbamazepine]", "values": [{"measurement": "reduction of AUC0-24 by diabetes", "setting": "[1]; carbamazepine 100 mg/kg orally", "value": 13.6, "unit": "%"}, {"measurement": "reduction of AUC0-inf by diabetes", "setting": "[1]; carbamazepine 100 mg/kg orally", "value": 22.8, "unit": "%"}, {"measurement": "reduction of Cmax by diabetes", "setting": "[1]; carbamazepine 100 mg/kg orally", "value": 6.8, "unit": "%"}, {"measurement": "reduction of AUC0-24 by diabetes", "setting": "[1]; carbamazepine 200 mg/kg orally", "value": 12.2, "unit": "%"}, {"measurement": "reduction of AUC0-inf by diabetes", "setting": "[1]; carbamazepine 200 mg/kg orally", "value": 32.8, "unit": "%"}, {"measurement": "reduction of Cmax by diabetes", "setting": "[1]; carbamazepine 200 mg/kg orally", "value": 20.3, "unit": "%"}, {"measurement": "effect of diabetes on the rate and extent of absorption", "setting": "[1]; diabetic rats, P<0.05", "value": "significantly altered"}, {"measurement": "elevation of liver enzymes, urea and creatinine in diabetic rats compared with normal rats", "setting": "[2]; diabetic rats", "value": "more pronounced in diabetic rats"}, {"measurement": "Liver enzymes levels", "setting": "[2]; [3]", "value": "significantly elevated"}, {"measurement": "creatinine levels", "setting": "[2]; [3]", "value": "significantly elevated"}, {"measurement": "urea levels", "setting": "[2]; [3]", "value": "significantly elevated"}]}
